Data reported in patent publication US6673549B1, “Genes expressed in C3A liver cell cultures treated with steroids” (Incyte Corporation, priority 2000, dated 2004).

Tested on: human C3A liver cells
Experiment: Microarray differential gene expression in human C3A liver cell cultures treated with steroids
Type: cell-based
Excerpt: Incyte clones represent template sequences derived from the LWESEQ GOLD assembled human sequence database (Incyte Genomics). In cases where more than one clone was available for a particular template, the 5′-most clone in the template was used on the microarray. The HUMAN GENOME GEM series 1-4 microarrays (Incyte Genomics) contain 28,626 array elements which represent 10,068 annotated clusters and 18,558 unannotated clusters. For the UNIGEM series microarrays (Incyte Genomics), Incyte clones were mapped to non-redundant Unigene clusters (Unigene database (build 46), NCBI; Shuler (1997) J Mol Med 75:694-698), and the 5′ clone with the strongest BLAST alignment (at least 90% identity and 100 bp overlap) was chosen, verified, and used in the construction of the microarray. The UNIGEM V microarray (Incyte Genomics) contains 7075 array elements which represent 4610 annotated genes and 2,184 unannotated clusters.
To construct microarrays, cDNAs were amplified from bacterial cells using primers complementary to vector sequences flanking the cDNA insert. […] Amplified cDNAs were then purified using […]-400 columns (APB). Purified cDNAs were immobilized on polymer-coated glass slides. Glass microscope slides (Corning, Corning N.Y.) were cleaned by ultrasound in 0.1% SDS and acetone, with extensive distilled water washes between and after treatments. Glass slides were etched in 4% hydrofluoric acid (VWR Scientific Products, West Chester Pa.), washed thoroughly in distilled water, and coated with 0.05% aminopropyl silane (Sigma Aldrich) in 95% ethanol. Coated slides were cured in a 110° C. oven. cDNAs were applied to the coated glass substrate using a procedure described in U.S. Pat. No. 5,807,522. One microliter of the cDNA at an average concentration of 100 ng/μl was loaded into the open capillary printing element by a high-speed robotic apparatus which then deposited about 5 nl of cDNA per slide.
Microarrays were UV-crosslinked using a […] UV-crosslinker (Stratagene), and then washed at room temperature once in 0.2% SDS and three times in distilled water. Non-specific binding sites were blocked by incubation of microarrays in 0.2% casein in phosphate buffered saline (Tropix, Bedford Mich.) for 30 minutes at 60° C. followed by washes in 0.2% SDS and distilled water as before.
In all cases, mRNA from untreated early confluent C3A cells were prepared in parallel as described below.
Cells were harvested and lysed in 1 ml of TRIZOL reagent (5×10^6 cells/ml; Life Technologies). Lysates were vortexed thoroughly, incubated at room temperature for 2-3 minutes, and extracted with 0.5 ml chloroform. The extract was mixed, incubated at room temperature for 5 minutes, and centrifuged at 15,000 rpm for 15 minutes at 4° C. The aqueous layer was collected, and an equal volume of isopropanol was added. Samples were mixed, incubated at room temperature for 10 minutes, and centrifuged at 15,000 rpm for 20 minutes at 4° C. The supernatant was removed, and the RNA pellet was washed with 1 ml of 70% ethanol, centrifuged at 15,000 rpm at 4° C., and resuspended in RNAse-free water. The concentration of the RNA was determined by measuring the optical density at 260 nm.
Poly(A) RNA was prepared using an OLIGOTEX mRNA kit (Qiagen) with the following modifications: OLIGOTEX beads were washed in tubes instead of on spin columns, resuspended in elution buffer, and then loaded onto spin columns to recover mRNA. To obtain maximum yield, the mRNA was eluted twice.
Each poly(A) RNA sample was reverse transcribed using MMLV reverse-transcriptase, 0.05 pg/μl oligo-d(T) primer (21mer), 1× first strand buffer, 0.03 units/ul RNAse inhibitor, 500 uM dATP, 500 uM dGTP, 500 uM dTTP, 40 uM dCTP, and 40 uM either dCTP-Cy3 or dCTP-Cy5 (APB).

SMILES: CC#C[C@]1(O)CC[C@H]2[C@@H]3CCC4=CC(=O)CCC4=C3[C@@H](c3ccc(N(C)C)cc3)C[C@@]21C [Mifepristone]
- Ave DE [log2] (C3A treated with steroid) (Clone ID 4543123): −1.20 log2
- Ave DE [log2] (C3A treated with steroid) (Clone ID 5426158): −0.93 log2

SMILES: C#C[C@]1(O)CC[C@H]2[C@@H]3CCC4=Cc5oncc5C[C@]4(C)[C@H]3CC[C@@]21C [danazol]
- Ave DE [log2] (C3A treated with steroid) (Clone ID 1500810): −0.41 log2
- Ave DE [log2] (C3A treated with steroid) (Clone ID 2607834): 0.92 log2
- Ave DE [log2] (C3A treated with steroid) (Clone ID 5038177): 0.74 log2

SMILES: C[C@]12C=CC(=O)C=C1CC[C@@H]1[C@@H]2C(=O)C[C@@]2(C)[C@H]1CC[C@]2(O)C(=O)CO [prednisone]
- Ave DE [log2] (C3A treated with steroid) (Clone ID 998615): 0.91 log2
- Ave DE [log2] (C3A treated with steroid) (Clone ID 1329625): 0.42 log2
- Ave DE [log2] (C3A treated with steroid) (Clone ID 1401312): −0.82 log2
- Ave DE [log2] (C3A treated with steroid) (Clone ID 1496011): 0.51 log2
- Ave DE [log2] (C3A treated with steroid) (Clone ID 1611629): 0.94 log2
- Ave DE [log2] (C3A treated with steroid) (Clone ID 1679595): 0.99 log2
- Ave DE [log2] (C3A treated with steroid) (Clone ID 1716458): 1.03 log2
- Ave DE [log2] (C3A treated with steroid) (Clone ID 1740179): 0.86 log2
- Ave DE [log2] (C3A treated with steroid) (Clone ID 1946155): 0.92 log2
- Ave DE [log2] (C3A treated with steroid) (Clone ID 1951845): 0.79 log2
- Ave DE [log2] (C3A treated with steroid) (Clone ID 2086783): −1.13 log2
- Ave DE [log2] (C3A treated with steroid) (Clone ID 2088104): −1.15 log2
- Ave DE [log2] (C3A treated with steroid) (Clone ID 2095329): −1.21 log2
- Ave DE [log2] (C3A treated with steroid) (Clone ID 2227273): 1.01 log2
- Ave DE [log2] (C3A treated with steroid) (Clone ID 2252884): −1.03 log2
- Ave DE [log2] (C3A treated with steroid) (Clone ID 2253102): −1.13 log2
- Ave DE [log2] (C3A treated with steroid) (Clone ID 2269058): −1.06 log2
- Ave DE [log2] (C3A treated with steroid) (Clone ID 2285521): −1.09 log2
- Ave DE [log2] (C3A treated with steroid) (Clone ID 2287703): −1.07 log2
- Ave DE [log2] (C3A treated with steroid) (Clone ID 2430165): 0.23 log2
- Ave DE [log2] (C3A treated with steroid) (Clone ID 2607834): 0.29 log2
- Ave DE [log2] (C3A treated with steroid) (Clone ID 2698777): −1.25 log2
- Ave DE [log2] (C3A treated with steroid) (Clone ID 2734007): 0.88 log2
- Ave DE [log2] (C3A treated with steroid) (Clone ID 2908212): 0.42 log2
- Ave DE [log2] (C3A treated with steroid) (Clone ID 3960194): 1.01 log2
- Ave DE [log2] (C3A treated with steroid) (Clone ID 4252872): 0.77 log2
- Ave DE [log2] (C3A treated with steroid) (Clone ID 4543123): 1.27 log2
- Ave DE [log2] (C3A treated with steroid) (Clone ID 4630674): 0.86 log2
- Ave DE [log2] (C3A treated with steroid) (Clone ID 4894508): −1.03 log2
- Ave DE [log2] (C3A treated with steroid) (Clone ID 5102951): 0.85 log2
- Ave DE [log2] (C3A treated with steroid) (Clone ID 5326983): 0.50 log2
- Ave DE [log2] (C3A treated with steroid) (Clone ID 5543385): 1.00 log2

SMILES: C[C@@H]1C[C@H]2[C@@H]3CCC4=CC(=O)C=C[C@]4(C)[C@@]3(F)[C@@H](O)C[C@]2(C)[C@@]1(O)C(=O)CO [dexamethasane]
- Ave DE [log2] (C3A treated with steroid) (Clone ID 2253102): −1.20 log2

SMILES: C[C@@H]1C[C@H]2[C@@H]3CCC4=CC(=O)C=C[C@]4(C)[C@@]3(F)[C@@H](O)C[C@]2(C)[C@@]1(O)C(=O)CO [dexamethasone]
- Ave DE [log2] (C3A treated with steroid) (Clone ID 167081): −1.10 log2
- Ave DE [log2] (C3A treated with steroid) (Clone ID 220378): 0.39 log2
- Ave DE [log2] (C3A treated with steroid) (Clone ID 380006): −0.98 log2
- Ave DE [log2] (C3A treated with steroid) (Clone ID 419492): 1.08 log2
- Ave DE [log2] (C3A treated with steroid) (Clone ID 494905): 0.75 log2
- Ave DE [log2] (C3A treated with steroid) (Clone ID 508943): −1.26 log2
- Ave DE [log2] (C3A treated with steroid) (Clone ID 869702): 0.55 log2
- Ave DE [log2] (C3A treated with steroid) (Clone ID 1259841): 0.84 log2
- Ave DE [log2] (C3A treated with steroid) (Clone ID 1275616): 0.97 log2
- Ave DE [log2] (C3A treated with steroid) (Clone ID 1323616): 0.89 log2
- Ave DE [log2] (C3A treated with steroid) (Clone ID 1500810): −0.70 log2
- Ave DE [log2] (C3A treated with steroid) (Clone ID 1501410): −1.16 log2
- Ave DE [log2] (C3A treated with steroid) (Clone ID 1573840): 0.86 log2
- Ave DE [log2] (C3A treated with steroid) (Clone ID 1823946): −1.20 log2
- Ave DE [log2] (C3A treated with steroid) (Clone ID 1857664): −0.71 log2
- Ave DE [log2] (C3A treated with steroid) (Clone ID 1876829): −0.94 log2
- Ave DE [log2] (C3A treated with steroid) (Clone ID 1930847): −0.67 log2
- Ave DE [log2] (C3A treated with steroid) (Clone ID 1946155): 0.93 log2
- Ave DE [log2] (C3A treated with steroid) (Clone ID 2025128): 0.90 log2
- Ave DE [log2] (C3A treated with steroid) (Clone ID 2086783): −1.18 log2
- Ave DE [log2] (C3A treated with steroid) (Clone ID 2088104): −1.20 log2
- Ave DE [log2] (C3A treated with steroid) (Clone ID 2095329): −1.37 log2
- Ave DE [log2] (C3A treated with steroid) (Clone ID 2173002): 0.75 log2
- Ave DE [log2] (C3A treated with steroid) (Clone ID 2253102): −1.20 log2
- Ave DE [log2] (C3A treated with steroid) (Clone ID 2269058): −1.15 log2
- Ave DE [log2] (C3A treated with steroid) (Clone ID 2285181): −1.27 log2
- Ave DE [log2] (C3A treated with steroid) (Clone ID 2285521): −1.22 log2
- Ave DE [log2] (C3A treated with steroid) (Clone ID 2287703): −1.24 log2
- Ave DE [log2] (C3A treated with steroid) (Clone ID 2287724): −1.16 log2
- Ave DE [log2] (C3A treated with steroid) (Clone ID 2293496): −0.82 log2
- Ave DE [log2] (C3A treated with steroid) (Clone ID 2294968): −0.94 log2
- Ave DE [log2] (C3A treated with steroid) (Clone ID 2655279): −1.21 log2
- Ave DE [log2] (C3A treated with steroid) (Clone ID 2698777): −1.48 log2
- Ave DE [log2] (C3A treated with steroid) (Clone ID 2703282): −0.86 log2
- Ave DE [log2] (C3A treated with steroid) (Clone ID 2947188): −0.98 log2
- Ave DE [log2] (C3A treated with steroid) (Clone ID 3057272): 0.98 log2
- Ave DE [log2] (C3A treated with steroid) (Clone ID 3115505): −1.10 log2
- Ave DE [log2] (C3A treated with steroid) (Clone ID 3139631): −0.82 log2
- Ave DE [log2] (C3A treated with steroid) (Clone ID 3973887): −1.06 log2
- Ave DE [log2] (C3A treated with steroid) (Clone ID 4089291): −0.77 log2
- Ave DE [log2] (C3A treated with steroid) (Clone ID 4284270): −0.88 log2
- Ave DE [log2] (C3A treated with steroid) (Clone ID 4377432): 0.87 log2
- Ave DE [log2] (C3A treated with steroid) (Clone ID 4884214): −0.77 log2
- Ave DE [log2] (C3A treated with steroid) (Clone ID 5091002): −1.42 log2
- Ave DE [log2] (C3A treated with steroid) (Clone ID 5206821): 0.17 log2
- Ave DE [log2] (C3A treated with steroid) (Clone ID 5426158): −1.03 log2

SMILES: C[C@H]1C[C@H]2[C@@H]3CCC4=CC(=O)C=C[C@]4(C)[C@@]3(Cl)[C@@H](O)C[C@]2(C)[C@@]1(O)C(=O)CO [beclomethasane]
- Ave DE [log2] (C3A treated with steroid) (Clone ID 5398701): 0.82 log2
